# Reference: US5128354A, “Agent for treating ischemic brain damage” (priority 1987, dated 1992)
# Where two headings read alike, the source gives them in different places.
# Key:
# cerebral hypoxia [1] = test: Prolonging effect on the persistent time of gasping movements in complete ischemia; format: in vivo, mice (STD-ddY strain, male); conditions: for ED (15% prolongation): Mus musculus, po, read-out: Complete ischemia PD15 (dose which prolonged the persistent time of gasping movements by 15%)
# Protocol: (§1) Protective effect on cerebral hypoxia
# (1) Prolonging effect on the persistent time of gasping movements in complete ischemia
# This test was carried out according to the method described in Arch. int. Pharmacodyn., 233, 136-144 (1978).
# Male mice of STD-ddY strain weighing 22-26 g were used in groups of 5 animals. A prescribed amount of test compounds, suspended in a 0.5% aqueous tragacanth solution, was orally administered to mice at a volume of 0.1 ml per 10 g of body weight. Two hours or one hour (for carbamazepine) after the administration of test compounds, the necks of the animals were cut with scissors for decapitation. The persistent time of gasping movements in the isolated heads was measured. To control group was orally administered only the same volume of a 0.5% aqueous tragacanth solution. The PD15 was calculated from the dose-activity relationship. The PD15 means the dose of a test compound which prolonged the persistent time of gasping movements by 15% in comparison with that of control group.
# cerebral hypoxia [2] = test: Prolonging effect on survival time of mice in normobaric hypoxia; format: in vivo, mice (STD-ddY strain, male); conditions: Mus musculus, po, read-out: Normobaric hypoxia PD30 (dose which prolonged the survival time by 30%)
# Protocol: as §1
# (2) Prolonging effect on survival time of mice in normobaric hypoxia
# This test was carried out according to the method described in Naunyn-Schmiedeberg's Arch. Pharmacol., 334, 282-289 (1986).
# Male mice of STD-ddY strain weighing […] were used in groups of 5 animals. A prescribed amount of test compounds, suspended in a 0.5% aqueous tragacanth solution, was orally administered to mice at a volume of 0.1 ml per 10 g of body weight. Two hours or one hour (for carbamazepine) after the administration of test compounds, each animal was taken in a 2.5-liter plastic chamber, and a mixed gas of 4% oxygen and 96% nitrogen was passed through the chamber at a rate of 4 liters/minute. There was measured the time to the death (respiratory cessation) of the animal. To control group was orally administered only the same volume of a 0.5% aqueous tragacanth solution. The PD30 was calculated from the dose-activity relationship. The PD30 means the dose of a test compound which prolonged the survival time by 30% in comparison with that of control group.
# [3] = tested on: delayed neuronal death in the gerbil hippocampal CA1 subfield; test: Protective effect on delayed neuronal death in the gerbil hippocampus following a transient ischemia; format: in vivo, Mongolian gerbils (male); conditions: p.o.; for CA1 neuronal density: ± S.E., 5 min occlusion, 4 days after
# Protocol: Protective effect on delayed neuronal death in the gerbil hippocampus following a transient ischemia
# This test was carried out according to the method described in Brain Res., 239, 57-69 (1982).
# Male Mongolian gerbils weighing 65-85 g were used in groups of 5 or 6 animals. A prescribed amount of test compounds, suspended in a 0.5% aqueous tragacanth solution, was orally administered to animals at a volume of 0.2 ml per 100 g of body weight. To control group was orally administered only the same volume of 0.5% aqueous tragacanth solution. One hour after the administration of test compounds, the necks of the gerbils were opened by a mid line incision under ether anesthesia, and then the bilateral common carotid arteries were exposed and occluded with Zen clips to block the blood flow. After 5 minutes, the clips were released and the blood flow was restored. Animals for the sham-operated group were operated in the same manner as above except that the occlusion of the carotid arteries. After 4 days, the animals were anesthetized with pentobarbital and fixed by transcardiac perfusion with a fixative solution containing 2.5% glutaraldehyde and 2% formaldehyde in 0.1M phosphate buffer (pH 7.4) at a pressure of 120 cm H2 O, and then the brains were removed. After the isolated brains were kept in the same fixative solution as above overnight, they were cut into coronal sections which contained the hippocampal area 0.5-1.0 mm posterior to the most rostral tip of the hippocampus or 1.4-1.9 mm posterior to bregma. Dissected brains were dehydrated and then embedded in paraffin. From the paraffin block, 4 μm-thin sections were prepared and subjected to hematoxylin-eosin staining.
# The number of morphologically intact neurons remaining in the hippocampal CA1 subfield of the above tissue specimen was measured using a computer-image digitizer (Image Research Inc., Canada, MCID model) at a magnification of 200×, and neuronal density per mm^2 area of the right and left hippocampus, namely, the CA1 neuronal density, was calculated.
# The value of the CA1 neuronal density in the table was calculated based on the average of the numbers of the remaining neurons in the right and left hippocampus of each animal. Student's t-test was used for the statistical analysis.
# [4] = Hypnonarcotic activity (loss of righting reflex); parameters: species or system mice (STD-ddY strain, male); conditions: mouse, in vivo, po
# Protocol: (§2) This test was carried out according to the method described in Japan. J. Pharmacol., 13, 259-273 (1963).
# (§3) Male mice of STD-ddY strain weighing 22-26 g were used in groups of 5-10 animals. A prescribed amount of test compounds, suspended in a 0.5% aqueous tragacanth solution, was orally administered to mice at a volume of 0.1 ml per 10 g of body weight. […] The HD50 was calculated by Probit method. The HD50 means the dose of a test compound which produced hypnonarcotic effect in 50% of animals.
# [5] = Arch. int. Pharmacodyn., 286, 282-298 (1987); cited from earlier work
# in vivo = format: in vivo; conditions: mouse, in vivo, po; mice, p.o.; mortality observed for 7 days; Probit method; read-out: Acute toxicity LD50
# Protocol: (§4) Male mice of STD-ddY strain weighing 22-26 g were used in groups of 5-10 animals. A prescribed amount of test compounds, suspended in a 0.5% aqueous tragacanth solution, was orally administered to mice at a volume of 0.2 ml per 10 g of body weight.
# mice [6] = test: Hypnonarcotic activity (loss of righting reflex); parameters: species or system mice (STD-ddY strain, male); conditions: mouse, in vivo, po, 200 mg/kg
# Protocol: as §2, §3
# mice [7] = test: in vivo; format: in vivo; conditions: p.o.
# Protocol: as §4
# [8] = mice, p.o., 2 h (1 h for carbamazepine) after administration
# [9] = mice, p.o., 4% oxygen/96% nitrogen, 2 h (1 h for carbamazepine) after administration
SMILES,ED (15% prolongation) (cerebral hypoxia [1]; [8]),ED (30% prolongation) (cerebral hypoxia [2]; [9]),CA1 neuronal density ([3]; 10 mg/kg),CA1 neuronal density ([3]; 30 mg/kg),protective effect on delayed neuronal death (in words) ([3]; 100 mg/kg),CA1 neuronal density ([3]; 100 mg/kg),"TD50 ([4]; mice, p.o., righting reflex lost for 60 minutes or more, Probit method, read-out: Hypnonarcotic activity HD50 (dose which produced hypnonarcotic effect in 50% of animals))",effect against cerebral hypoxia (in words) [5],ED (15% prolongation) (cerebral hypoxia [1]),ED (30% prolongation) (cerebral hypoxia [2]),LD50 at 168 h (in vivo),TD50 [4],Clonic convulsion and death (mice [6]),"protective effects on cerebral hypoxia compared with reference drugs (Table 1) (cerebral hypoxia [1]; mice, p.o., complete ischemia and normobaric hypoxia (also A2))",protective effect on delayed neuronal death (in words) ([3]; 30 mg/kg),toxicity (in words) (mice [7])
NC(=O)N1c2ccccc2C=Cc2ccccc21 [Carbamazepine],5.5 mg/kg,19.6 mg/kg,482 ± 272 number of cells/mm^2,932 ± 353 number of cells/mm^2,relatively weak protective effect,1235 ± 330 number of cells/mm^2,345 mg/kg,effective against cerebral hypoxia,–,–,–,–,–,–,–,–
CCC1(c2ccccc2)C(=O)NC(=O)NC1=O [Phenobarbital],–,–,–,–,–,–,–,–,15 mg/kg,26.8 mg/kg,201 mg/kg,–,–,–,–,–
O=C1NC(=O)C(c2ccccc2)(c2ccccc2)N1 [Phenytoin],5.5 mg/kg,22.7 mg/kg,–,228 ± 87 number of cells/mm^2,relatively weak protective effect,1464 ± 503 number of cells/mm^2,–,effective against cerebral hypoxia,–,–,–,> 200 mg/kg,convulsion in all mice and of death in some mice,–,–,–
"NS(=O)(=O)Cc1noc2ccccc12 [The active compound of the invention, 3-Sulfamoylmethyl-1,2-benzisoxazole]",–,–,519 ± 28 number of cells/mm^2,2713 ± 228 number of cells/mm^2,almost completely prevented the delayed neuronal death,3326 ± 49 number of cells/mm^2,–,–,6 mg/kg,29.4 mg/kg,1890 mg/kg,934 mg/kg,–,"comparable to those of phenobarbital, phenytoin and carbamazepine",extremely strong protective effect,weak
